Test results taken from patent publication US12036262B2, “Edible plant-derived nanoparticles for regulation of gut microbiota” (University of Louisville Research Foundation, Inc., priority 2017, dated 2024).

Experiments:
colon lymphocytes = test: ELISA of IL-22 in supernatants of isolated colon lymphocytes; type: cell-based, mice
Description: Enzyme-Linked Immunosorbent Assay (ELISA). The cytokine IL-22, IL-1β, and TNFα levels in cell culture supernatants or mouse colon mucus were quantified using ELISA kits (eBioscience) according to the manufacturer's instructions. Briefly, a microtiter plate was coated with anti-mouse IL-22, IL-1β and TNFα antibody at 1:200 overnight at 4° C. Excess binding sites were blocked with 200 μl of 1×[…] Diluent (eBioscience, San Diego, California, United States of America) for 1 hour at 22° C. After washing three times with PBS containing 0.05% Tween 20, the plate was incubated with detection antibody in blocking buffer for 1 hour at 22° C. After three washes, avidin conjugated with horseradish peroxidase and substrate were each added sequentially for 1 hour and 30 min at 22° C. […] Isolation of Lymphoid Cells in the Colon. Intestinal lymphoid cells were isolated from the intestine by incubation in PBS supplemented with 1 mM EDTA, 15 mM HEPES and 10% FCS for 30 minutes at 37° C. Supernatants were discarded, and tissues were then incubated in RPMI supplemented with 15 mM HEPES and 300 units/mL collagenase type VIII (Sigma) for 30 minutes with gentle shaking. Lysates were gently pressed through nylon cell strainers (70 μm in diameter; […] Lymphocytes were recovered from the interface and washed twice.

IL-22, IL-1β, TNFα = test: ELISA of IL-22, IL-1β and TNFα in colon mucus; type: in vivo, mice
Description: Enzyme-Linked Immunosorbent Assay (ELISA). The cytokine IL-22, IL-1β, and TNFα levels in cell culture supernatants or mouse colon mucus were quantified using ELISA kits (eBioscience) according to the manufacturer's instructions. Briefly, a microtiter plate was coated with anti-mouse IL-22, IL-1β and TNFα antibody at 1:200 overnight at 4° C. Excess binding sites were blocked with 200 μl of 1×ELISA/ELISPoT Diluent (eBioscience, San Diego, California, United States of America) for 1 hour at 22° C. After washing three times with PBS containing 0.05% Tween 20, the plate was incubated with detection antibody in blocking buffer for 1 hour at 22° C. After three washes, avidin conjugated with horseradish peroxidase and substrate were each added sequentially for 1 hour and 30 min at 22° C. An analysis of absorbance at 405 nm using a microtiter plate reader (BioTek Synergy HT, BioTek Instruments, Inc., Winooski, Vermont, United States of America) followed.

LGG = test: HPLC analysis of tryptophan metabolites in LGG MRS broth; type: cell-based, Lactobacillus rhamnosus
Description: HPLC Analysis of Tryptophan Metabolites. The fecal samples and LGG MRS broth were diluted with an equal volume of methanol. After centrifugation at 10,000×g for 30 minutes, 50 μl of supernatant was injected for high-performance liquid chromatography (HPLC) analysis. The HPLC analysis was performed on an Agilent 1260 Infinity system equipped with an Agilent ZORBAX SB-C18 column (4.6×150 mm, 3.5 μm), with following parameters: mobile phase A: 5 mM NH4Ac in water modified with 0.1% formic acid (v/v); mobile phase B: 5 mM NH4Ac in 90% acetonitrile modified with 0.1% formic acid (v/v); gradient: 5% B in first 5 min, 5-20% B for 10 min, hold 20% B for 5 min, 20%-50% B for 5 min, hold 50% B for 5 min, 50%-100% B for 5 min, hold 100% B for 10 min, 100-5% B for 5 min; flow rate: 1.0 ml/min; temperature: 30° C. UV detection at 300 nm was used to monitor indole-3-carboxaldehyde (I3A) and indole-3-acetaldehyde (IAAld); FLD (ex=280 nm; em=350 nm) was used for detection of tryptophan and indole-3-acetamide (I3AM). The standard for I3A (Catalog No. 129445-5g), I3AM (Catalog No. 286281-1G), IAAld (Catalog No. I1000-25MG), and tryptophan (Catalog No. T0254-25g) were purchased from Sigma.

MC-38 cells = test: Migration assay, intracellular LGG; type: cell-based, C57BL/6 murine
Description: Cells. C57BL/6 murine colon adenocarcinoma MC-38 cells (gender unknown; Kerafast, Inc., Boston, Massachusetts, United States of America) or human epithelial colorectal adenocarcinoma Caco-2 cells (American Type Culture Collection, ATCC®, Manassas, Virginia, United States of America) were grown in tissue culture plates with Dulbecco's modified Eagle's medium (DMEM) supplemented with 10% heat-inactivated fetal bovine serum (FBS), 100 U/mL penicillin, and 100 μg/mL streptomycin at 37° C. in a 5% CO2 atmosphere.
Migration Assays. MC-38 or Caco-2 cells (ATCC) were seeded at 1×10^5 cells per well in a 12-well tissue culture plate with Dulbecco's modified Eagle's medium (DMEM) without antibiotics. The cells were inoculated with 1×10^7 bacteria per well for 90 minutes at 37° C. in a 5% CO2 atmosphere to allow bacterial adhesion and entry. The number of intracellular bacteria was quantified as described in Zhang & Wang, 1998.

monooxygenase ycnE = test: ycnE expression in LGG (qPCR, mRNA sequencing, LC-MS/MS); type: cell-based, Lactobacillus rhamnosus
Description: Quantitative Real-Time PCR for RNA Expression. The quantity of mature miRNAs was determined with quantitative real-time PCR (qPCR) using a miScript II RT kit (QIAGEN Inc., Germantown, Maryland, United States of America) and miScript SYBR Green PCR Kit (QIAGEN) with QIAGEN 3′ universal primers. For analysis of gene mRNA expression, 1 μg of total RNA was reverse transcribed using SuperScript III reverse transcriptase (Invitrogen, Waltham, Massachusetts, United States of America), and quantitation was performed using SsoAdvanced™ Universal SYBR Green Supermix (Bio-Rad Laboratories, Inc., Hercules, California, United States of America) and the listed primers (Table 1) with SsoAdvanced™ Universal SYBR Green Supermix (Bio-Rad). qPCR was performed using a Bio-Rad CFX96 qPCR System with each reaction run in triplicate. Analysis and fold-changes were determined using the comparative threshold cycle (Ct) method. Changes in miRNA or mRNA expression were calculated as fold-change. […]
LGG mRNA Sequencing. […] Following quantitation with Qubit dsDNA HS Reagent (Catalog No., Q32854; Thermo Scientific,), 10 ng of dscDNA/sample was fragmented with an E220 Focused-ultrasonicator (Covaris, Matthews, North Carolina, United States of America). […] Libraries were then combined into equimolar pools, which were then measured for size and concentration. […] The first and second reads were each 83 bases.

Molecule: O=Cc1c[nH]c2ccccc12 [I3A, indole-3-carboxaldehyde]
- induction of IL-22 in colon lymphocytes from AHR KO mice (colon lymphocytes; AHR KO mice): no evidence of an impact
- IL-22 in supernatants of colon lymphocytes (colon lymphocytes; colon lymphocytes from naïve B6 mice incubated for 3 hours): induced expression of IL-22

Molecule: NC(=O)Cc1c[nH]c2ccccc12 [I3AM, indole-3-acetamide]
- inhibitory effect on IL-22 production in AHR KO mice (IL-22, IL-1β, TNFα; AHR KO mice treated with LGG supernatant exposed to I3AM): did not occur
- production of IAAld and I3A by LGG (LGG; MRS media, different concentrations of I3AM): inhibited the production of IAAld and I3A in a dose-dependent manner
- GELN-RNA-mediated induction of the I3A precursor IAAld in LGG cultures (LGG; addition of I3AM to LGG cultures): significantly inhibited

Molecule: O=CCc1c[nH]c2ccccc12 [IAAld, indole-3-acetaldehyde]
- I3AM-mediated inhibitory effect on IL-22 production (IL-22, IL-1β, TNFα; colon mucus of WT mice gavaged with MRS medium from treated LGG): cancelled the I3AM-mediated inhibitory effort on IL-22 production
- inhibitory effect of I3AM on the production of I3A (LGG; additional IAAld): cancelled

Molecule: ath-miR827: GELN-derived miRNA, SEQ ID NO: 81 (UUAGAUGACCAUCAACAAACU; expressed or natural sequence)
- LGG entry into MC38 cells (MC-38 cells): could prevent the entry of LGG into gut epithelial cells

Molecule: ath-miR842: GELN-derived miRNA, SEQ ID NO: 82 (UCAUGGUCAGAUCCGUCAUCC; expressed or natural sequence)
- LGG entry into MC38 cells (MC-38 cells): could prevent the entry of LGG into gut epithelial cells

Molecule: mdo-miR7267-3p: GELN-derived miRNA, SEQ ID NO: 129 (CAUCCAGCCAUCCACCCCAGGCCAUC; expressed or natural sequence)
- ycnE expression in LGG (monooxygenase ycnE): indeed inhibited
- I3A in LGG cultures (LGG): induction of I3A
- I3AM in LGG cultures (LGG): inhibition of I3AM
